Here are results for 11 molecules from patent US11377469B2, “CD73 inhibitors” (ORIC Pharmaceuticals, Inc., priority 2017, dated 2022).

Bounds are passed on as bounds.

For the experiment, the target named is CD73 (Homo sapiens (Human), UniProt P21589). In words: Biochemical Assay (CD73 inhibition, AMP hydrolysis, Malachite Green readout). The following applies: CD73 0.3208 nM, AMP 15 μM, Tris-HCl pH 7.4, Malachite Green absorbance.
Sequence of CD73 (P21589 27-574): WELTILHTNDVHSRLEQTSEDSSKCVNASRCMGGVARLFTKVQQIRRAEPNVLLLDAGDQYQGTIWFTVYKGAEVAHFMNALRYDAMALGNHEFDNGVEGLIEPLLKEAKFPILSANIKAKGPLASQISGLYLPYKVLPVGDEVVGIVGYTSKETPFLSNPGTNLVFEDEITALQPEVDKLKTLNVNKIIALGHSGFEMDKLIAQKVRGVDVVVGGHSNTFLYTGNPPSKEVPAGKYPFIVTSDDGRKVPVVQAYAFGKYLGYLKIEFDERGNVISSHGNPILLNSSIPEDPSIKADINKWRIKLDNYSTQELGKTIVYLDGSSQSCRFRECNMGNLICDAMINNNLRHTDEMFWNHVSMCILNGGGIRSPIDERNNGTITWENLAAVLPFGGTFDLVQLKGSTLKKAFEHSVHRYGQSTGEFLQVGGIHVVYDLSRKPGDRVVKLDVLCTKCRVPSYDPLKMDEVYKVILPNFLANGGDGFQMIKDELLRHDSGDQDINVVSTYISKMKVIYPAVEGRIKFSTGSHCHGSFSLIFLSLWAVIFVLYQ
`CC(C)CNc1nc(Cl)nc2c1cnn2[C@@H]1O[C@H](COCP(=O)(O)O)[C@@H](O)[C@H]1O` [Example 63, ((((2R,3S,4R,5R)-5-(6-chloro-4-(isobutylamino)-1H-pyrazolo[3,4-d]pyrimidin-1-yl)-3,4-dihydroxytetrahydrofuran-2-yl)methoxy)methyl)phosphonic acid] gave an IC50 of at most 500 nM.

`C[C@@H](Nc1nc(Cl)nc2c1cnn2[C@@H]1O[C@H](COCP(=O)(O)O)[C@@H](O)[C@H]1O)C1CC1` [Example 92, ((((2R,3S,4R,5R)-5-(6-chloro-4-(((R)-1-cyclopropylethyl)amino)-1H-pyrazolo[3,4-d]pyrimidin-1-yl)-3,4-dihydroxytetrahydrofuran-2-yl)methoxy)methyl)phosphonic acid] yielded an IC50 of at most 500 nM.

Consider `CN(c1nc(Cl)nc2c1nnn2[C@@H]1O[C@H](COC(=O)CP(=O)(O)O)[C@@H](O)[C@H]1O)[C@H]1CCc2ccccc21` [Example 11, (2-(((2R,3S,4R,5R)-5-(5-chloro-7-(((S)-2,3-dihydro-1H-inden-1-yl)(methyl)amino)-3H-[1,2,3]triazolo[4,5-d]pyrimidin-3-yl)-3,4-dihydroxytetrahydrofuran-2-yl)methoxy)-2-oxoethyl)phosphonic acid], for which the IC50 is over 1000 nM.

`CN(c1nc(Cl)nc2c1cnn2[C@@H]1O[C@H](CCP(=O)(O)O)[C@@H](O)[C@H]1O)[C@H]1CCc2ccccc21` [Example 4, (2-((2R,3S,4R,5R)-5-(6-Chloro-4-(((S)-2,3-dihydro-1H-inden-1-yl)(methyl)amino)-1H-pyrazolo[3,4-d]pyrimidin-1-yl)-3,4-dihydroxytetrahydrofuran-2-yl)ethyl)phosphonic acid] had an IC50 of over 1000 nM.

In turn, `O=P(O)(O)COC[C@H]1O[C@@H](n2ncc3c(NCC4CCCC4)nc(Cl)nc32)[C@H](O)[C@@H]1O` [Example 124, ((((2R,3S,4R,5R)-5-(6-chloro-4-((cyclopentylmethyl)amino)-1H-pyrazolo[3,4-d]pyrimidin-1-yl)-3,4-dihydroxytetrahydrofuran-2-yl)methoxy)methyl)phosphonic acid] gave an IC50 of at most 500 nM.

For `Cc1ccc(-c2nc(Cl)nc3c2cnn3[C@@H]2O[C@H](COCP(=O)(O)O)[C@@H](O)[C@H]2O)o1` [Example 100, ((((2R,3S,4R,5R)-5-(6-chloro-4-(5-methylfuran-2-yl)-1H-pyrazolo[3,4-d]pyrimidin-1-yl)-3,4-dihydroxytetrahydrofuran-2-yl)methoxy)methyl)phosphonic acid], the concentration for half-maximal inhibition (IC50) was at most 500 nM.

`O=P(O)(O)COC[C@H]1O[C@@H](n2ncc3c(NC4CCC4)nc(Cl)nc32)[C@H](O)[C@@H]1O` [Example 79, ((((2R,3S,4R,5R)-5-(6-chloro-4-(cyclobutylamino)-1H-pyrazolo[3,4-d]pyrimidin-1-yl)-3,4-dihydroxytetrahydrofuran-2-yl)methoxy)methyl)phosphonic acid] had an IC50 of at most 500 nM.

`O=P(O)(O)COC[C@H]1O[C@@H](n2ncc3c(NC4CCOCC4)nc(Cl)nc32)[C@H](O)[C@@H]1O` [Example 73, ((((2R,3S,4R,5R)-5-(6-chloro-4-((tetrahydro-2H-pyran-4-yl)amino)-1H-pyrazolo[3,4-d]pyrimidin-1-yl)-3,4-dihydroxytetrahydrofuran-2-yl)methoxy)methyl)phosphonic acid] returned an IC50 of at most 500 nM.

`C[C@H](OCP(=O)(O)O)[C@H]1O[C@@H](n2ncc3c(NCc4ccccc4Cl)nc(Cl)nc32)[C@H](O)[C@@H]1O` [Example 50, (((S)-1-((2S,3S,4R,5R)-5-(6-chloro-4-((2-chlorobenzyl)amino)-1H-pyrazolo[3,4-d]pyrimidin-1-yl)-3,4-dihydroxytetrahydrofuran-2-yl)ethoxy)methyl)phosphonic acid] came in with an IC50 of over 1000 nM.

With `C[C@]1(O)C[C@@H](CNc2nc(Cl)nc3c2cnn3[C@@H]2O[C@H](COCP(=O)(O)O)[C@@H](O)[C@H]2O)C1` [Example 89, ((((2R,3S,4R,5R)-5-(6-chloro-4-((((1s,3S)-3-hydroxy-3-methylcyclobutyl)methyl)amino)-1H-pyrazolo[3,4-d]pyrimidin-1-yl)-3,4-dihydroxytetrahydrofuran-2-yl)methoxy)methyl)phosphonic acid], the IC50 is at most 500 nM.

`O=P(O)(O)CS(=O)(=O)C[C@H]1O[C@@H](n2nnc3c(NC4CCC4)nc(Cl)nc32)[C@H](O)[C@@H]1O` [Example 110, (((((2S,3S,4R,5R)-5-(5-chloro-7-(cyclobutylamino)-3H-[1,2,3]triazolo[4,5-d]pyrimidin-3-yl)-3,4-dihydroxytetrahydrofuran-2-yl)methyl)sulfonyl)methyl)phosphonic acid] had an IC50 of at most 500 nM.

A word on the IC50: it is the concentration needed to halve the response being measured. A lower IC50 goes with greater potency.
